Source: patent publication US20260356957A1, “METHODS FOR TREATMENT OF NON-SMALL CELL LUNG CANCER (NSCLC)” (Janssen Biotech, Inc., priority 2023, published 2026)

Tests used:
[1] = system: EGFR-mutated locally advanced or metastatic NSCLC; experiment: MARIPOSA Phase 3, duration of response by BICR; type: in vivo, human; details: confirmed responders
[2] = system: EGFR-mutated locally advanced or metastatic NSCLC; experiment: MARIPOSA Phase 3, progression-free survival after first subsequent therapy (PFS2); type: in vivo, human
Excerpt: The efficacy population included all patients who had undergone randomization. Tick marks indicate censoring of data. […]

EGFR-mutated NSCLC = details: all prespecified subgroups; cited from earlier work
[3] = system: EGFR-mutated locally advanced or metastatic NSCLC; experiment: MARIPOSA Phase 3, objective response by BICR (RECIST v1.1); type: in vivo, human; details: best overall response
[4] = system: EGFR-mutated locally advanced or metastatic NSCLC; experiment: MARIPOSA Phase 3, time to subsequent therapy (TTST) and subsequent therapy; type: in vivo, human
[5] = system: EGFR-mutated NSCLC with brain metastasis; experiment: MARIPOSA Phase 3, intracranial PFS by BICR in participants with history of brain metastasis; type: in vivo, human
Excerpt: • 1. […] Intracranial PFS [Time Frame: Up to approximately 42 months]. […] Incidence and Severity of Adverse Events (AEs) [Time Frame: Up to approximately 60 months]. Incidence and severity of treatment emergent adverse events (TEAEs) will be reported. Any adverse event occurring at or after the initial administration of study treatment through the day of last dose plus 30 days, or until the start of subsequent anticancer therapy (if earlier), is considered to be treatment emergent. • 8. Number of Participants with Clinical Laboratory Abnormalities [Time Frame: Up to approximately 60 months]. Number of participants with clinical laboratory abnormalities (serum chemistry, hematology, blood coagulation, and urine samples) will be reported. • 9. Number of Participants with Vital Signs Abnormalities [Time Frame: Up to approximately 60 months]. Number of participants with vital signs abnormalities (temperature, heart rate, respiratory rate, oxygen saturation, blood pressure) will be reported. • 10. Number of Participants with Physical Examination Abnormalities [Time Frame: Up to approximately 60 months]. Number of participants with physical examination abnormalities will be reported. • 11. […] Number of Participants with Anti-Amivantamab Antibodies [Time Frame: Up to approximately 42 months]. […] Change from Baseline in Non-Small Cell Lung Cancer-Symptom Assessment Questionnaire (NCSLC-SAQ) [Time Frame: Baseline Up to approximately 42 months]. The NSCLC-SAQ contains 7 items that assess cough, pain, dyspnea, fatigue, and poor appetite over a 7-day recall period. Each multi-item scale and individual item will be summarized using count and percent by visit. • 15. Change from Baseline in European Organization of Research and Treatment of Cancer Quality of Life Questionnaire Core 30 (EORTC-QLQ-C30) [Time Frame: Baseline Up to approximately 42 months]. EORTC-QLQ-C30 is a core 30-item questionnaire for evaluating the health-related quality of life (HRQOL) of participants participating in cancer clinical studies. • 16.

[6] = system: EGFR-mutated locally advanced or metastatic NSCLC; experiment: MARIPOSA Phase 3, time to symptomatic progression (TTSP); type: in vivo, human
[7] = system: EGFR-mutated locally advanced or metastatic NSCLC; experiment: MARIPOSA Phase 3, overall survival; type: in vivo, human
[8] = system: EGFR-mutated locally advanced or metastatic NSCLC; experiment: MARIPOSA Phase 3, progression-free survival by BICR; type: in vivo, human
Excerpt: The primary endpoint of the study is PFS (using RECIST v1.1 guidelines) as assessed by blinded independent central review (BICR).

[9] = MARIPOSA Phase 3, adverse events; type: in vivo, human; details: in vivo
Excerpt: • 1. […] Incidence and Severity of Adverse Events (AEs) [Time Frame: Up to approximately 60 months]. Incidence and severity of treatment emergent adverse events (TEAEs) will be reported. Any adverse event occurring at or after the initial administration of study treatment through the day of last dose plus 30 days, or until the start of subsequent anticancer therapy (if earlier), is considered to be treatment emergent. • 8. Number of Participants with Clinical Laboratory Abnormalities [Time Frame: Up to approximately 60 months]. Number of participants with clinical laboratory abnormalities (serum chemistry, hematology, blood coagulation, and urine samples) will be reported. • 9. Number of Participants with Vital Signs Abnormalities [Time Frame: Up to approximately 60 months]. Number of participants with vital signs abnormalities (temperature, heart rate, respiratory rate, oxygen saturation, blood pressure) will be reported. • 10. Number of Participants with Physical Examination Abnormalities [Time Frame: Up to approximately 60 months]. Number of participants with physical examination abnormalities will be reported. • 11. […] The NSCLC-SAQ contains 7 items that assess cough, pain, dyspnea, fatigue, and poor appetite over a 7-day recall period. Each multi-item scale and individual item will be summarized using count and percent by visit. • 15. […] EORTC-QLQ-C30 is a core 30-item questionnaire for evaluating the health-related quality of life (HRQOL) of participants participating in cancer clinical studies. • 16.

Compound: C=CC(=O)Nc1cc(Nc2nccc(-n3cc(CN(C)C)c(-c4ccccc4)n3)n2)c(OC)cc1N1CCOCC1 [Lazertinib, N-(5-(4-(4-((dimethylamino)methyl)-3-phenyl-1H-pyrazol-1-yl)pyrimidin-2-ylamino)-4-methoxy-2-morpholinophenyl) acrylamide]
- Censored (DOR) [1]: 77 (48.1%) (%)
- Event (DOR) [1]: 83 (51.9%) (%)
- DOR time to event, 75th percentile (95% CI) ([1]; NE = not estimable): NE (NE, NE)
- Event (PFS2) ([2]; Full Analysis Set): 58 (26.9%) (%)
- PFS2 time to event, 75th percentile (95% CI) ([2]; NE = not estimable): NE (28.94, NE)
- PFS vs gefitinib (EGFR-mutated NSCLC): improved PFS compared to the first generation EGFR TKI gefitinib in all prespecified subgroups
- Complete Response (CR) [3]: 9 (4.2%) (%)
- Not Evaluable (NE) [3]: 5 (2.3%) (%)
- Progressive Disease (PD) [3]: 9 (4.2%) (%)
- TTST 6-month event-free rate (95% CI) ([4]; Full Analysis Set): 0.90 (0.85, 0.93)
- TTST 12-month event-free rate (95% CI) ([4]; Full Analysis Set): 0.71 (0.66, 0.78)
- TTST 18-month event-free rate (95% CI) ([4]; Full Analysis Set): 0.60 (0.53, 0.66)
- TTST 24-month event-free rate (95% CI) ([4]; Full Analysis Set): 0.50 (0.43, 0.58)
- TTST time to event, 75th percentile (95% CI) ([4]; NE = not estimable): NE (NE , NE)
- Event (intracranial PFS) [5]: 37 (43.0%) (%)
- Intracranial PFS time to event, 75th percentile (95% CI) ([5]; NE = not estimable): NE (22.67, NE)
- Death without Symptomatic PD ([6]; Full Analysis Set): 24 (11.1%) (%)
- Event (TTSP) ([6]; Full Analysis Set): 70 (22.4%) (%)
- TTSP 6-month event-free rate (95% CI) ([6]; Full Analysis Set): 0.90 (0.85, 0.93)
- TTSP 12-month event-free rate (95% CI) ([6]; Full Analysis Set): 0.79 (0.72, 0.84)
- TTSP 18-month event-free rate (95% CI) ([6]; Full Analysis Set): 0.71 (0.64, 0.76)
- TTSP 24-month event-free rate (95% CI) ([6]; Full Analysis Set): 0.65 (0.58, 0.72)
- TTSP 30-month event-free rate (95% CI) ([6]; Full Analysis Set): 0.61 (0.52, 0.69)
- TTSP time to event, 25th percentile (95% CI) ([6]; Full Analysis Set): 13.80 (10.41, 18.56) months
- TTSP Median (95% CI) ([6]; NE = not estimable): NE (NE, NE)
- TTSP time to event, 75th percentile (95% CI) ([6]; NE = not estimable): NE (NE, NE)
- Censored (OS) ([7]; Full Analysis Set): 160 (74.1%) (%)
- Event (OS) ([7]; Full Analysis Set): 56 (25.9%) (%)
- OS 12-month event-free rate (95% CI) ([7]; Full Analysis Set): 0.86 (0.81, 0.90)
- OS 18-month event-free rate (95% CI) ([7]; Full Analysis Set): 0.78 (0.71, 0.83)
- OS 24-month event-free rate (95% CI) ([7]; Full Analysis Set): 0.71 (0.61, 0.78)
- OS 30-month event-free rate (95% CI) ([7]; Full Analysis Set): 0.68 (0.58, 0.75)
- OS time to event, 75th percentile (95% CI) ([7]; NE = not estimable): NE (NE, NE)
- Median overall survival (95% CI) ([7]; interim analysis, NE = not estimable): NE (NE, NE)
- PFS 6-month event-free rate (95% CI) [8]: 0.85 (0.79, 0.89)
- PFS 18-month event-free rate (95% CI) [8]: 0.52 (0.44, 0.58)
- PFS 24-month event-free rate (95% CI) [8]: 0.35 (0.27, 0.42)
- PFS 30-month event-free rate (95% CI) [8]: 0.30 (0.22, 0.39)
- Censored (PFS) ([8]; Full Analysis Set): 95 (44.0%) (%)
- PFS time to event, 75th percentile (95% CI) ([8]; Full Analysis Set): NE (24.05, NE)
- Safety profile [9]: well defined and tolerable, and largely consistent with that seen with other 3rd generation EGFR TKI

Compound: Amivantamab: IgG1 anti-EGFR/c-Met bispecific antibody described in U.S. Pat. No. 9,593,164; SEQ ID NO: 1-20
- Safety profile [9]: well defined and tolerable, largely consistent with its on-target activity against the EGFR and MET pathways
